Experimental data: patent US8658129B2, “Agents and methods for the imaging of myelin basic protein” (General Electric Company, priority 2009, dated 2014)

Assays:
[1] = Dynamic light scattering measurement of aqueous solubility; type: physicochemical; conditions: 25° C., angle of 173°, in nm (unit assumed)
Description: Dynamic light scattering spectroscopy was used to measure aqueous solubility. Measurements were collected on a Malvern HPPS500 spectrometer (Malvern Instruments Inc., Southborough, Mass.). Samples were measured in a low volume disposable cuvette at 25° C., at an angle of 173°. Each sample was analyzed in duplicate. Z average measurements were taken to determine the relative molecular “size” of the formulation in terms of the hydrodynamic diameter (DH) radius in solution. DH is inversely related the z-average translational diffusion coefficient (D) in the solution.

nerve tissue sections = assay: Ex vivo staining of nerve tissue sections by the agents (histochemical assay); type: binding, rat; set-up: key to Nerve binding, ex vivo: A+ indicates binding to nerves using the ex vivo histochemical assay; conditions: for Nerve binding, ex vivo: 10 uM agent, 20 minutes, nerve tissue sections; for staining of the trigeminal nerves: rat trigeminal nerve sections, FIG. 1
Excerpt: Various nerves including sciatic, femoral, brachial plexus, trigeminal, optic, and penile were harvested from male Sprague Dawley rats or male CD-1 mice. Tissue was fixed by perfusion and/or post-fixation with formalin. Following post-fixation, tissue was cryoprotected in a 20% sucrose solution made in phosphate buffered saline (PBS). Nerves were then flash-frozen using methanol and dry ice in OCT media. In some cases, PVDF membranes were used to help keep the nerves vertical in the OCT media. Thin sections (5-10 microns) were sliced on a Leica microtome (Leica Microsystems GmbH, Wetzlar Germany) and stored in a −80° C. freezer prior to staining with agents (1)-(5).
The agents were dissolved in DMSO to make a 10 mM stock solution. Slides containing nerve tissue sections were rinsed three times with PBS. The tissue sections were incubated with a solution of 10 uM of each fluorophore diluted in either PBS or a mixture of 99 uL DMSO, 100 uL cremaphor, 600 uL rat serum, and 200 uL PBS for 20 minutes. The slides were then washed with PBS for 5 min three times, cover-slipped with Vectashield and imaged on a Zeiss Axioimager microscope (Carl Zeiss Meditec, Inc., Oberkochen, Germany) at 200× magnification. A custom filter cube (excitation filter: 387 nm with 11 nm bandpass, 409 nm dichroic mirror; emission filter 409 nm long pass) was used to collect images for examination of morphology and for image analysis.
The control slides, containing the nerves with no agent (not shown), was negative under the same imaging conditions.

[2] = Absorbance and fluorescence spectra of the agents; type: physicochemical; conditions: for Excitation (DMSO): excitation maximum in 100% DMSO; for Excitation(MeOH): excitation maximum in absolute methanol; for ExcitationddH2O: excitation maximum in distilled/deionized water; for Emission(DMSO): fluorescence emission maximum in DMSO; for Emission(MeOH): fluorescence emission maximum in MeOH; for EmissionddH2O: fluorescence emission maximum in ddH2O
Description: Absorbance spectra of the agents were measured using a UV-Vis spectrometer (PerkinElmer Lambda™ 20, PerkinElmer, Inc., Waltham Mass.) in wavelengths ranging from 200-to-800 nm in 100% dimethylsulfoxide (DMSO), absolute methanol (MeOH), and distilled/deionized water (ddH2O). The wavelength corresponding to the maximum absorbance is recorded and used as the excitation wavelength for future fluorescence measurements.
The fluorescence spectra of the agents were collected in DMSO, MeOH, and ddH2O under continuous excitation using a xenon short arc light source (Ushio UXL 75W, Ushio America, Inc., Cyress Calif.) equipped fluorimeter (350-900 nm; PTI Fluorimeter, Photon Technology International Birmingham, N.J.). A+ indicates binding to nerves using the ex vivo histochemical assay.

nerves = assay: In vivo fluorescence imaging of nerves; set-up: species or system mice; conditions: for nerve-to-adipose tissue ratio: fluorescence emission of 600 nm, compared to agents (4) and (5), FIG. 2
Description: To assess the efficacy of the sulfonamide agents in-vivo the agents were formulated using the following excipients: 5-20% propylene glycol (v/v; JT Baker 9402-01), 5-30% 2-Hydroxylpropyl-β-Cyclodextrin (w/v; Sigma H5784) and 70-90% distilled/deionized water (v/v).
To prepare the pharmaceutical carrier, each excipient is added individually beginning with propylene glycol. Propylene glycol is added directly to the agent and vortexed for approximately 1 minute to guarantee maximal dispersal of the agent in the excipient. The next excipient to be added to the solution is 2-Hydroxylpropyl-β-Cyclodextrin. Cyclodextrin's are cyclic (R-1,4) linked oligosaccharides containing a relatively hydrophobic central cavity and hydrophilic outer surface. The application of cyclodextrin in formulation is to enhance the solubility of a compound in aqueous solutions. In formulation of the sulfonamide analogs a final concentration of 5-15%; 2-Hydroxypropyl β-cyclodextrin (w/v) is added to the solution. The formulation is again vortexed for 1-5 minutes and the pH adjusted to a final range between 4-5. The final step in the formulation is to bring the solution to the volume with distilled/deionized water.
Male CD-1 mice between 25-35 grams were purchased from Charles River Laboratories (Wilmington, Mass.). Prior to administration of the agent, animals were briefly anesthetized using 2% isofluorane. Each agent was then administered in a 15.2 mg/kg dose via tail vein catheterization. Each rodent was allowed to recover from anesthesia prior to returning to the home cage.
Structure (2) and (3) were administered at an average of 15 mg/kg formulated in the pharmaceutical carrier. Formulated agents were administered in mice 4 hours prior to imaging using a Zeiss Lumara microscope (Carl Zeiss Meditec, Inc., Oberkochen, Germany) with an attached CRI Nuance™ camera for multispectral fluorescence imaging (Cambridge Research & Instrumentation, Inc., Woburn, Mass.). The excitation wavelengths used were 406/15 nm or 460/60 nm.
The adjacent muscle tissues had very low background binding. […]

Compound	Z-average [1]	Nerve binding, ex vivo (nerve tissue sections)	Excitation (DMSO) [2]	Excitation(MeOH) [2]	ExcitationddH2O [2]	Emission(DMSO) [2]	Emission(MeOH) [2]	EmissionddH2O [2]	time at which nerve-to-muscle ratio is best (nerves; mice, FIG. 4)	staining of the trigeminal nerves (nerve tissue sections)	nerve-to-adipose tissue ratio (nerves)
COc1cc(/C=C/c2ccc(S(=O)(=O)N3CCOCC3)cc2)ccc1/C=C/c1ccc(N)cc1 [(1)]		+	422 nm	392 nm	380 nm	621 nm	604 nm	581 nm		myelinated donut-shaped structures are visible	
COc1cc(/C=C/c2ccc(S(=O)(=O)N(CCO)CCO)cc2)ccc1/C=C/c1ccc(N)cc1 [Structure 2]											higher
COc1cc(/C=C/c2ccc(S(=O)(=O)N3CCN(CCO)CC3)cc2)ccc1/C=C/c1ccc(N)cc1.Cl [Structure 3]											higher

Now from value to molecule, other results behind:

Z-average [1]	Nerve binding, ex vivo (nerve tissue sections)	Excitation (DMSO) [2]	Excitation(MeOH) [2]	ExcitationddH2O [2]	Emission(DMSO) [2]	Emission(MeOH) [2]	EmissionddH2O [2]	time at which nerve-to-muscle ratio is best (nerves; mice, FIG. 4)	Compound	staining of the trigeminal nerves (nerve tissue sections)	nerve-to-adipose tissue ratio (nerves)
2210.00									COc1cc(/C=C/c2ccc(S(C)(=O)=O)cc2)ccc1/C=C/c1ccc(N)cc1 [(4)]		
7365.00								four	COc1cc(/C=C/c2ccc(C#N)cc2)ccc1/C=C/c1ccc(N)cc1 [(5)]		
	+	392 nm	391 nm	409 nm	600 nm	680 nm	620 nm		COc1cc(/C=C/c2ccc(S(=O)(=O)N(CCO)CCO)cc2)ccc1/C=C/c1ccc(N)cc1 [(2)]	myelinated donut-shaped structures are visible	
29.70	+	388 nm	380 nm	412 nm	615 nm	488 nm	626 nm		COc1cc(/C=C/c2ccc(S(=O)(=O)N3CCN(CCO)CC3)cc2)ccc1/C=C/c1ccc(N)cc1.Cl [(3)]	myelinated donut-shaped structures are visible	
